According to publication PMC10096175, “An In Vitro Antimicrobial, Anticancer and Antioxidant Activity of N–[(2–Arylmethylthio)phenylsulfonyl]cinnamamide Derivatives” (Molecules, 2023):
In brackets after ≈: the same amount, converted by molar mass. Where two headings read alike, the source gives them in different places.

Assays:
E. faecalis ATCC 51299 = assay: MIC determination, reference strain (microdilution); type: cell-based; settings: Enterococcus faecalis, ATCC51299; E. faecalis ATCC 51299; Co-trimoxazole as sulfamethoxazole/trimethoprim; read-out: MIC
HeLa cells = assay: MTT assay; type: cell-based, human; settings: for IC50: HeLa, MTT, 24 h treatment; for Selectivity index (SI): IC50 HEK-293 / IC50 HeLa
S. aureus ATCC 6538 [1] = assay: MIC determination, reference strain (microdilution); type: cell-based; settings: Staphylococcus aureus, ATCC6538; S. aureus ATCC 6538; ± SD; Co-trimoxazole as sulfamethoxazole/trimethoprim; read-out: MIC
ABTS assay = settings: ABTS radical scavenging; 10 min, 30 °C
Description: The ABTS assay was performed spectrophotometrically. […] ABTS solution with methanol/DMSO (9/1 v/v) was used as a control. After 10 min of incubation at 30 °C in the dark, the absorbance was analyzed at λ = 750 nm by a 96-well microplate reader (Epoch, BioTek System, Santa Clara, CA, USA). Ascorbic acid was used as a standard.
ABTS inhibition was calculated by the following equation:ABTS Inhibition (%) = [Acontrol − Asample)/Acontrol] × 100%
(§1) IC50 values of the samples were calculated using program GraFit v. 7.0 (Erithacus Software). The analysis was performed three times, with tree replications in each (n = 9). Statistical analysis was performed with one-way ANOVA with Tuckey’s post-hoc test.

MCF-7 cells = assay: MTT assay; type: cell-based, human; settings: for IC50: Homo sapiens, MCF7, MCF-7, MTT, 24 h treatment, read-out: IC50; for Selectivity index (SI): IC50 HEK-293 / IC50 MCF-7
S. aureus ATCC 6538 [2] = assay: Blood bacteriostatic activity test in sheep blood; type: cell-based, Staphylococcus aureus; settings: 24 h, 37 °C, t0 1.30 × 10^8, control t24 2.28 × 10^9
Description: (§2) The manifestation of the bactericidal properties of chemical compounds is low minimum bactericidal concentration (MBC) values, which allows many groups of researchers to check the killing rate over time (time killing tests). It is an important element in determining the strength and speed of action of a compound on bacteria. Such studies are usually carried out in bacterial media, without additional factors influencing the results.
(§3) This step was carried out on two types of bacteria, S. aureus ATCC 6538 (Figure 8 and Table 2) and S. epidermidis ATCC 14 990 (Figure 9 and Table 3).
(§4) The number of bacteria at the initial time (t0) was 1.30 × 10^8 CFU/mL for S. aureus and 1.70 × 10^7 CFU/mL for S. epidermidis. Live bacterial cells were assayed after 24 h of incubation at 37 °C. […] Bacterial controls without compounds grew unhindered and after 24 h (t24) were 2.28 × 10^9 for S. aureus and 5.10 × 10^8 CFU/mL for S. epidermidis. […] It can be assumed that the tested compounds were not related to any fraction of the blood. Attention should be paid to the S. epidermidis tests and the difference between the number of bacteria at t0 and after 24 h of incubation for each compound. The number of bacteria at t0 was 1.70 × 10^7 CFU/mL and after 24 h it decreased to, e.g., 9.40 × 10^6 CFU/mL for compounds 16e and 7.80 × 10^6 CFU/mL for compound 17c. It can be assumed that the tested compounds after being added to blood samples prevented bacteria from multiplying. However, under these conditions, the phagocytic cells take up the bacteria. […] This can be explained by much greater variety of mechanisms of action of S. aureus against phagocytic cells than of S. epidermidis. This can be integrated with the bacterial cell compounds, e.g., protein A, as well as enzymes that bacteria can secrete outside the cell, e.g., coagulase and staphylokinase. Additional studies should be conducted to check how the tested compounds affect the enzymes secreted by S. aureus.
(§5) The assay was performed as previously described by with a modification. Pure sheep blood was used for the research. Two strains of bacteria S. aureus ATCC 6538 and S. epidermidis ATCC 14990 were used with an inoculum density of approximately 10^8 CFU/mL at 0 time. The final concentration of the compounds was 0.5, 1, 2, 4, and 8 µg/mL, and the final volume of the assay tube was 1 mL. Bacterial survivors were determined on MH agar plates (CFU/mL) at 24 h after exposure.

DPPH assay = settings: DPPH radical scavenging; 40 min, room temperature
Description: The DPPH assay was performed spectrophotometrically. The amount of 30 µL of different concentrations of samples, dissolved in methanol/DMSO (9/1 v/v), was mixed with 170 µL of 0.06 mM DPPH methanolic solution and completed with methanol to a final volume of 300 µL. DPPH methanolic solution with methanol/DMSO (9/1 v/v) was used as a control. After 40 min of incubation at room temperature in the dark, the absorbance was analyzed at λ = 510 nm by a 96-well microplate reader (Epoch, BioTek System, Santa Clara, CA, USA). Ascorbic acid was used as a standard.
DPPH inhibition was calculated by the following equation:DPPH Inhibition (%) = [Acontrol − Asample)/Acontrol] × 100%
as §1

[3] = test system: S. epidermidis ATCC 14990; assay: MIC determination, reference strain (microdilution); type: cell-based; settings: Staphylococcus epidermidis, ATCC14990; S. epidermidis ATCC 14990; Co-trimoxazole as sulfamethoxazole/trimethoprim; read-out: MIC
C. albicans ATCC 10231 = assay: MIC determination, reference fungal strain (microdilution); type: cell-based; settings: Candida albicans, ATCC10231; C. albicans ATCC 10231; read-out: MIC
E. hirae ATCC 10541 = assay: MIC determination, reference strain (microdilution); type: cell-based; settings: Enterococcus hirae, ATCC10541; E. hirae ATCC 10541; Co-trimoxazole as sulfamethoxazole/trimethoprim; read-out: MIC
B. subtilis ATCC 6633 = assay: as above; type: cell-based; settings: Bacillus subtilis, ATCC6633; B. subtilis ATCC 6633; Co-trimoxazole as sulfamethoxazole/trimethoprim; read-out: MIC
[4] = test system: S. epidermidis ATCC 14990; assay: Blood bacteriostatic activity test in sheep blood; type: cell-based, Staphylococcus epidermidis; settings: 24 h, 37 °C, t0 1.70 × 10^7, control t24 5.10 × 10^8
Description: as §2, §3, §4, §5

SKOV-3 cells = assay: MTT assay; type: cell-based, human; settings: for IC50: Homo sapiens, SK-OV-3, SKOV-3, MTT, 24 h treatment, read-out: IC50; for Selectivity index (SI): IC50 HEK-293 / IC50 SKOV-3
[5] = Homo sapiens, 24 h, read-out: IC50

MIC (E. faecalis ATCC 51299) | IC50 (HeLa cells; [5]) | MIC (S. aureus ATCC 6538 [1]) | IC50 ABTS (ABTS assay) | IC50 (MCF-7 cells) | IC50 DPPH (DPPH assay) | MIC [3] | MIC (C. albicans ATCC 10231) | MIC (E. hirae ATCC 10541) | MIC (B. subtilis ATCC 6633) | Structure (SMILES) | Selectivity index (SI) (HeLa cells) | Selectivity index (SI) (MCF-7 cells) | Number of viable cells of Staphylococcus aureus (S. aureus ATCC 6538 [2]; 1 µg/mL) | Number of viable cells of Staphylococcus aureus (S. aureus ATCC 6538 [2]; 2 µg/mL) | Number of viable cells of Staphylococcus aureus (S. aureus ATCC 6538 [2]; 4 µg/mL) | Number of viable cells of Staphylococcus aureus (S. aureus ATCC 6538 [2]; 8 µg/mL) | Number of viable cells of Staphylococcus epidermidis ([4]; 1 µg/mL) | Number of viable cells of Staphylococcus epidermidis ([4]; 2 µg/mL) | Number of viable cells of Staphylococcus epidermidis ([4]; 4 µg/mL) | Number of viable cells of Staphylococcus epidermidis ([4]; 8 µg/mL) | further results
2 ± 0.58 µg/mL (≈ 3.5 µM) | 11.2 ± 0.7 µg/mL (≈ 19.7 µM) | 1 ± 0.29 µg/mL (≈ 1.75 µM) | 496.63 ± 0.48 µg/mL (≈ 870 µM) | 11.6 ± 0.91 µg/mL (≈ 20.4 µM) | 1077.66 ± 0.42 µg/mL (≈ 1890 µM) | 1 ± 0.29 µg/mL (≈ 1.75 µM) | > 125 µg/mL | 2 ± 0.58 µg/mL (≈ 3.5 µM) | 62.5 ± 0.29 µg/mL (≈ 109 µM) | Cc1cc(S(=O)(=O)NC(=O)/C=C/c2ccc(Cl)cc2)c(SCc2cc3c(cc2Cl)OCO3)cc1Cl [Compound 17c, (E)–N–{4–Chloro–2–[(6–chlorobenzo[d][1,3]dioxol–5–yl)methylthio]–5–methylphenylsulfonyl}–3–(4–chlorophenyl)acrylamide] | 1.3 | 1.2 | 2.24 × 10^8 CFU/mL | 1.09 × 10^8 CFU/mL | 2.02 × 10^8 CFU/mL | 9.35 × 10^7 CFU/mL | 7.80 × 10^6 CFU/mL | 4.25 × 10^6 CFU/mL | 1.40 × 10^7 CFU/mL | 5.10 × 10^6 CFU/mL | IC50 (SKOV-3 cells): 12 ± 1.07 µg/mL (≈ 20.9 µM); Selectivity index (SI) (SKOV-3 cells): 1.2
2 ± 0.87 µg/mL (≈ 3.69 µM) | < 10 µg/mL | 1 µg/mL (≈ 1.84 µM) | 627.81 ± 2.29 µg/mL (≈ 1160 µM) | 12.8 ± 0.29 µg/mL (≈ 23.6 µM) | 348.21 ± 0.29 µg/mL (≈ 642 µM) | 1 ± 0.29 µg/mL (≈ 1.84 µM) | > 125 µg/mL | 2 ± 0.58 µg/mL (≈ 3.69 µM) | 62.5 ± 0.29 µg/mL (≈ 115 µM) | Cc1cc(S(=O)(=O)NC(=O)/C=C/c2ccc(Cl)cc2)c(SCc2cccc3ccccc23)cc1Cl [Compound 16d, (E)–N–{4–Chloro–5–methyl–2–[(naphthalen–1–yl)methylthio]phenylsulfonyl}–3–(4–chlorophenyl)acrylamide] | 1.1 | 0.8 | 1.88 × 10^8 CFU/mL | 1.66 × 10^8 CFU/mL | 1.58 × 10^8 CFU/mL | 1.27 × 10^8 CFU/mL | 4.00 × 10^6 CFU/mL | 3.00 × 10^6 CFU/mL | 2.00 × 10^6 CFU/mL | 2.50 × 10^6 CFU/mL | IC50 (HeLa cells): 9.66 ± 0.75 µg/mL (≈ 17.8 µM); IC50 (SKOV-3 cells): 7.87 ± 0.03 µg/mL (≈ 14.5 µM); Selectivity index (SI) (SKOV-3 cells): 1.4
4 ± 0.15 µg/mL (≈ 7.19 µM) | 12.3 ± 0.2 µg/mL (≈ 22.2 µM) | 2 ± 0.58 µg/mL (≈ 3.6 µM) | 697.70 ± 0.43 µg/mL (≈ 1250 µM) | 15.5 ± 0.82 µg/mL (≈ 27.8 µM) | 539.30 ± 0.13 µg/mL (≈ 970 µM) | 1 ± 0.29 µg/mL (≈ 1.8 µM) | > 125 µg/mL | 4 ± 0.15 µg/mL (≈ 7.19 µM) | 62.5 ± 0.29 µg/mL (≈ 112 µM) | COc1ccc(/C=C/C(=O)NS(=O)(=O)c2cc(C)c(Cl)cc2SCc2cccc3ccccc23)cc1F [Compound 16e, (E)–N–{4–Chloro–5–methyl–2–[(naphthalen–1–yl)methylthio]phenylsulfonyl}–3–(3–fluoro–4–methoxyphenyl)acrylamide] | 0.8 | 0.6 | 2.15 × 10^8 CFU/mL | 1.27 × 10^8 CFU/mL | 1.94 × 10^8 CFU/mL | 2.80 × 10^8 CFU/mL | 9.40 × 10^6 CFU/mL | 4.00 × 10^6 CFU/mL | 3.20 × 10^6 CFU/mL | 3.00 × 10^6 CFU/mL | IC50 (SKOV-3 cells): 12.2 ± 0.23 µg/mL (≈ 21.9 µM); Selectivity index (SI) (SKOV-3 cells): 0.8
